# Measured values from ChEMBL document CHEMBL4311976, “Design, synthesis and biological evaluation of novel 7H-pyrrolo[2,3-d]pyrimidine derivatives as potential FAK inhibitors and anticancer agents” (Eur J Med Chem, 2019).
# pIC50: −log10 of the molar value.
# Experiments:
# [1] = biological target: Mitogen-activated protein kinase 1 (Homo sapiens) (UniProt P28482); assay: Inhibition of recombinant full length GST-tagged human ERK2 expressed in Escherichia coli at 0.5 uM using Ser/Thr 03 as substrate in presence of ATP at Km concentration after 1 hr by Z'-LYTE assay relative to control
# Chain of Mitogen-activated protein kinase 1 (Homo sapiens) (P28482 whole entry, the tested form may be a part): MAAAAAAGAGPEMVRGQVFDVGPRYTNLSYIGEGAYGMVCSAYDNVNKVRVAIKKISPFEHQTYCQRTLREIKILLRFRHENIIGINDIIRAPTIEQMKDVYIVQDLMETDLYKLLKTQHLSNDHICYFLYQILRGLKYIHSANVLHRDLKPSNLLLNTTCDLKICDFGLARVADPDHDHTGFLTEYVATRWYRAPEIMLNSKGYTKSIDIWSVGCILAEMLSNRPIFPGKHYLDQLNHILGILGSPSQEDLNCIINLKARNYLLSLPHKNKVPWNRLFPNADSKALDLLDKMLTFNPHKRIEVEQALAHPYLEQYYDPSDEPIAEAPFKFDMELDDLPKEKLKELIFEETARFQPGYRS
# [2] = biological target: Vascular endothelial growth factor receptor 2 (Homo sapiens) (UniProt P35968); assay: Inhibition of recombinant His-tagged human KDR cytoplasmic domain (789 to 1356 residues) expressed in baculovirus expression system at 0.5 uM using tyr 01 as substrate in presence of ATP at Km concentration after 1 hr by Z'-LYTE assay relative to control
# Chain of Vascular endothelial growth factor receptor 2 (Homo sapiens) (P35968 whole entry, the tested form may be a part): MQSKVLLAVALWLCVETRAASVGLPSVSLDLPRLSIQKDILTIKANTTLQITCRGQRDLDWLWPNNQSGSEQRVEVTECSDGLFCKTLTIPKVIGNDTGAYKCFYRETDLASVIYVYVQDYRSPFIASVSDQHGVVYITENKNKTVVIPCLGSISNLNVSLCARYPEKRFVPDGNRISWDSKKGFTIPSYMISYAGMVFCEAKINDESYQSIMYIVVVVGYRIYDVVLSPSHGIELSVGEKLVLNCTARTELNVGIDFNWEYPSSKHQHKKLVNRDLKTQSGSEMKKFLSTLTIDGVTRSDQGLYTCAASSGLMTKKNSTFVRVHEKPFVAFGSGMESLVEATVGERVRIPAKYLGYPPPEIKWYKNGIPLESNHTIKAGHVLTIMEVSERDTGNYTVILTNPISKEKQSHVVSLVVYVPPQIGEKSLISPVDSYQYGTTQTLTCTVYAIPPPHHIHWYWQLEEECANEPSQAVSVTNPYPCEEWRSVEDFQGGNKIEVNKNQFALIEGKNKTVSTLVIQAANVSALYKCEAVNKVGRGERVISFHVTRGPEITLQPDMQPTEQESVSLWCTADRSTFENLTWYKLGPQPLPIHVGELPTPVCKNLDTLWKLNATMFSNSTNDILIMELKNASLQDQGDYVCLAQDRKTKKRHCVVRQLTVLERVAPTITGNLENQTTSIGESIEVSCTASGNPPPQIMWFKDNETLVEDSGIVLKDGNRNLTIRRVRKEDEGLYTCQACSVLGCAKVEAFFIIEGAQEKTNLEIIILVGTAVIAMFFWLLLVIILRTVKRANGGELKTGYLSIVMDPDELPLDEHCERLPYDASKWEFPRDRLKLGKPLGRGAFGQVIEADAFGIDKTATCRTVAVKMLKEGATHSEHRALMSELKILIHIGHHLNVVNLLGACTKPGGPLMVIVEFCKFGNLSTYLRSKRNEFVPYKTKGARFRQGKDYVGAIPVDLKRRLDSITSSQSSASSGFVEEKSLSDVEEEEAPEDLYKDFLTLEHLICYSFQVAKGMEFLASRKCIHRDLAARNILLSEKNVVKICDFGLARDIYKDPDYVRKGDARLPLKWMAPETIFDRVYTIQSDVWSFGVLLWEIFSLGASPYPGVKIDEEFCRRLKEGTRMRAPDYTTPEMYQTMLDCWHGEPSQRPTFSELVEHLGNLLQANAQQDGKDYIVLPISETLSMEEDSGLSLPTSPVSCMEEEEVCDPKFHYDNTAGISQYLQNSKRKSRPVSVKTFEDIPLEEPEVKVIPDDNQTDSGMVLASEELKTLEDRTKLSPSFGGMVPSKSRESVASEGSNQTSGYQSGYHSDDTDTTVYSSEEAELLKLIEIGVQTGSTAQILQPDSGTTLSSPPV
# [3] = biological target: Serine/threonine-protein kinase mTOR (Homo sapiens) (UniProt P42345); assay: Inhibition of recombinant GST-tagged human mTOR catalytic domain (1360 to 2549 residues) expressed in baculovirus expression system at 0.5 uM using Ser/Thr 11 as substrate in presence of ATP at Km concentration after 1 hr by Z'-LYTE assay relative to control
# [4] = biological target: Receptor-type tyrosine-protein kinase FLT3 (Homo sapiens) (UniProt P36888); assay: Inhibition of recombinant His-tagged human FLT3 (564 to 958 residues) expressed in baculovirus expression system at 0.5 uM using tyr 02 as substrate in presence of ATP at Km concentration after 1 hr by Z'-LYTE assay relative to control
# Chain of Receptor-type tyrosine-protein kinase FLT3 (Homo sapiens) (P36888 whole entry, the tested form may be a part): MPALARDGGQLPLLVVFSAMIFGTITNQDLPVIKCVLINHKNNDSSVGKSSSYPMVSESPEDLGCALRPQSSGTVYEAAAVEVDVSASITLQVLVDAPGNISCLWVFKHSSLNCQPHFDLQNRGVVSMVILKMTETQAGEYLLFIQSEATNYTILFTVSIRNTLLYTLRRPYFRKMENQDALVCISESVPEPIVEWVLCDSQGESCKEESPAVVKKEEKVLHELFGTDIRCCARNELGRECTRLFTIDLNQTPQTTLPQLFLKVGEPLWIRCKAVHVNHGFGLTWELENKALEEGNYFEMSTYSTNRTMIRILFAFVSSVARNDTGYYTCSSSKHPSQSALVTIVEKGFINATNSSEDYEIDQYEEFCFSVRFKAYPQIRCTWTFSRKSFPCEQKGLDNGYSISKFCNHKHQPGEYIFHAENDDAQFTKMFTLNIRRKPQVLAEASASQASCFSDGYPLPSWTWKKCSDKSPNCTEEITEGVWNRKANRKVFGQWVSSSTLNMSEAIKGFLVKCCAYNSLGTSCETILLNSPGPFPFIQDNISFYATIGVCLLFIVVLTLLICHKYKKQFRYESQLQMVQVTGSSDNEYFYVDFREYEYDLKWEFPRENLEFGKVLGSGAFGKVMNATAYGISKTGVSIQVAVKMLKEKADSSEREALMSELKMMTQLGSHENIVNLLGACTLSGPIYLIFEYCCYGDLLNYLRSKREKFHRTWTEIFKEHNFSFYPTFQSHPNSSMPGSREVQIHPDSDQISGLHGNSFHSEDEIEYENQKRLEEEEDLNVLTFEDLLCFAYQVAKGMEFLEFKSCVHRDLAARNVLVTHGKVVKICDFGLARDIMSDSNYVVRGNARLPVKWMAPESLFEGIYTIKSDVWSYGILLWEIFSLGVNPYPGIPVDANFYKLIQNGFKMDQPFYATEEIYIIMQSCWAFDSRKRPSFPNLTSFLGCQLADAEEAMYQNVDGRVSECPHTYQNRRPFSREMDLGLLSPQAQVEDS
# CYP2C19 = CYP2C19 (Homo sapiens, UniProt P33261); assay: Inhibition of CYP2C19 in human pooled liver microsomes at 10 uM using S-mephenytoin as substrate preincubated for 10 mins followed by NADPH addition and measured after 15 mins by LC/MS/MS analysis relative to control; format: ADME; settings: probe S-mephenytoin
# Chain of CYP2C19 (P33261 whole entry): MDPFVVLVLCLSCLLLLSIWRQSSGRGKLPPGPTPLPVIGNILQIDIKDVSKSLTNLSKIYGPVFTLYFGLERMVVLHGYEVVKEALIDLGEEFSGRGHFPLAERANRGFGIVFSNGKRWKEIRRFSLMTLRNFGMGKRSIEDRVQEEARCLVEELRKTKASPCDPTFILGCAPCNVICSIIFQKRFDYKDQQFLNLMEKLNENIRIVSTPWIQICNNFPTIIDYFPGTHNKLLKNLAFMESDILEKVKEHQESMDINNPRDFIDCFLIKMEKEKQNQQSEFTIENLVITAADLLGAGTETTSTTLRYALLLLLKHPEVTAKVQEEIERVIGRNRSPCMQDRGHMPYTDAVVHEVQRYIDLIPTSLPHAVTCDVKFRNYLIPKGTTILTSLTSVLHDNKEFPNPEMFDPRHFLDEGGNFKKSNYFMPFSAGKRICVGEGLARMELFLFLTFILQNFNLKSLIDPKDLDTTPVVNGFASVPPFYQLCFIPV
# A549 [5] = assay: Induction of apoptosis in human A549 cells assessed as early apoptotic cells at 9 uM after 72 hrs by Annexin V-FITC/propidium iodide staining-based flow cytometric analysis (reference value: 2.40%); format: functional
# A549 [6] = assay: Induction of apoptosis in human A549 cells assessed as viable cells at 3 uM after 72 hrs by Annexin V-FITC/propidium iodide staining-based flow cytometric analysis (reference value: 94.66%); format: functional; settings: A549, 72 h, read-out: Activity
# A549 [7] = assay: Induction of apoptosis in human A549 cells assessed as late apoptotic cells at 1 uM after 72 hrs by Annexin V-FITC/propidium iodide staining-based flow cytometric analysis (reference value: 1.24%); format: functional
# MDA-MB-231 = assay: cells; settings: Homo sapiens, MDA-MB-231, 72 h
# Description: Antiproliferative activity against human MDA-MB-231 cells assessed as reduction in cell viability after 72 hrs by MTT assay
smiles,measurement,setting,value
COc1cc(C(=O)NC2CCNCC2)ccc1Nc1nc(Nc2ccccc2P(C)(C)=O)c2cc[nH]c2n1,inhibition,[1],9%
same,inhibition,[2],1%
same,inhibition,[3],0%
same,inhibition,[4],13%
same,"inhibition at 0.25 h, 10 µM",CYP2C19,4.9%
same,Activity,A549 [5],30.12%
same,viability at 3 µM,A549 [6],52.9%
same,Activity,A549 [7],9.62%
same,pIC50,MDA-MB-231,4.76
